Here are results for 50 compounds from PubChem BioAssay AID179 (DTP/NCI, 2004).

This assay has as its system CEM cells HIV-1 protection, formazan growth assay. As to the kind of experiment: NCI AIDS Antiviral Assay. Particulars: for IC50: measured here: growth of uninfected CEM cells. The essentials: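 Category rules: moderately active means at least 50% protection on retest, and confirmed active means 100% protection reproducibly. The underlying data came from a formazan growth assay in HIV-1-infected CEM cells.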

Activity calls are given as the source filed them.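 The calls were made as follows: active = compounds giving half or more protection of infected cells from virus-caused growth loss, again on retest; inactive = the rest.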

`CCOC(=O)c1c(-c2ccc(OC)cc2)c(C#N)c(=S)n(C2OC(CO)C(O)C(O)C2O)c1C` (stereo unspecified): the EC50 (in general, the concentration giving half of the maximal effect) is above 200 µM and the concentration for half-maximal inhibition (IC50) – broadly, the point on the concentration scale where inhibition reaches its midpoint – was above 200 µM.
Regarding `CCOc1ccc(-n2nnc3c(N)nc(N)nc32)cc1`, the EC50 is above 200 µM and the half-inhibitory concentration (IC50) was above 200 µM.
As for `O=C(CC1C(=O)Nc2ccccc2S1=O)Nc1cccc(Cl)c1` (stereo unspecified), the EC50 was above 20.9 µM and the IC50 is above 20.9 µM.
For the compound `CCCCCCCCCCCCc1ccsc1-c1ccc(-c2ccc(-c3sc(-c4cc(CCCCCCCCCCCC)c(-c5ccc(-c6ccc(-c7sccc7CCCCCCCCCCCC)s6)s5)s4)cc3CCCCCCCCCCCC)s2)s1`, the EC50 is above 50.1 µM and the IC50 is above 50.1 µM.
Take `CC(=O)Oc1ccccc1[C@H]1CC(=O)C[C@H](c2ccccc2OC(C)=O)C12C(=O)c1ccccc1C2=O`: the EC50 is above 200 µM and the IC50 amounted to 46.8 µM.
For `COC(=O)c1cc(C(=O)Nc2cc(Cc3cc(NC(=O)c4ccc(OC)c(C(=O)OC)c4)c(OC)c(C(=O)OC)c3)cc(C(=O)OC)c2OC)ccc1OC`, in that order: above 200 µM and above 200 µM.
Taken in the same sequence, the figures for `C=C(Br)CN1CCC2(c3ccccc3)C(=O)C([Se]c3ccccc3)CCC12` (stereo unspecified) were above 14.8 µM and above 14.8 µM.
On to `Cc1cc(N(CCC#N)CCC#N)ccc1CC1N=C(c2ccccc2)OC1=O` (stereo unspecified), for which the EC50 is above 93.3 µM and the IC50 was above 93.3 µM.
Turning to `CC1=NN(c2ccccc2)C(=O)C1N=Nc1ccc(S(=O)(=O)Nc2nnc(C)s2)cc1` (stereo unspecified), the outcome was inactive.
On to `O=C(CC/C(CC(=O)c1ccc(Cl)cc1)=N/O)Nc1ccc(Cl)c(Cl)c1`, for which the EC50 is above 437 µM and the IC50 was above 437 µM.
`COc1cc(C[N+]23CC[N+](Cc4cc(OC)cc(OC)c4)(CC2)C3)cc(OC)c1`: the EC50 was above 525 µM and the IC50 is 214 µM.
In the case of `O=C(Nc1cccc(C(F)(F)F)c1)C(Cl)=C(Cl)Cl`, the EC50 was above 200 µM and the IC50 was found to be 2.34 µM.
Taken in the same sequence, the figures for `COC(=O)/N=[N+](\[O-])C(c1ccccc1)c1ccccc1` were above 200 µM and 191 µM.
Take `O=c1[nH]nc(-c2ccccc2)n1/N=C\c1ccccc1`: the EC50 is above 200 µM and the IC50 is above 200 µM.
Take `CC1CC2C(=O)N(c3ccccc3)C(=O)C2c2c1c1ccccc1n2Cc1ccccc1` (stereo unspecified): the outcome was inactive.
Regarding `C[C@]12OC(=O)[C@]3(O)CC[C@H]4[C@@H](C[C@@H](O)[C@@]5(Cl)CC=CC(=O)[C@]45C)[C@]45OCC6C(=O)O[C@@H]1C[C@@]6(C)[C@H](C4=O)[C@@]32O5` (stereo partly specified), the EC50 was above 2 µM and the IC50 was 0.871 µM.
Taken in the same sequence, the figures for `CC(=Nc1c2ccccc2nc2ccccc12)N(C)C` were above 200 µM and 28.2 µM.
Regarding `C/C=C1/C(=Cc2[nH]c(C=c3[nH]/c(=C/C4=NC(=O)C(CC)=C4C)c(C)c3CCC(=O)O)c(CCC(=O)O)c2C)NC(=O)C1C` (stereo unspecified), the EC50 was above 28.8 µM and the IC50 was above 28.8 µM.
On to `O=C(OCCN1CCCC1)c1cc2ccccc2[nH]1`, for which the EC50 is above 200 µM and the IC50 is above 100 µM.
Taken in the same sequence, the figures for `CCN(CC)C(=O)N[C@@H](Cc1ccccc1)C(=O)NC` were above 200 µM and above 200 µM.
For `CC(=O)Nc1cccc(N2C(=O)/C(=C\c3cccc(Oc4ccccc4)c3)SC2c2ccccc2)c1` (stereo unspecified), the EC50 is above 200 µM and the IC50 came to 30.9 µM.
For the compound `COc1ccc(N2C(=O)/C(=C\c3cc(OC)c(OC)c(OC)c3)S(=O)(=O)C2c2ccccc2)cc1` (stereo unspecified), the EC50 is above 200 µM and the half-inhibitory concentration (IC50) amounted to 41.7 µM.
Take `C/C(N=NS(=O)(=O)c1ccc(C)cc1)=C1\C=CC=CN1O`: the outcome was inactive.
Consider `CC(/C=C/NNC1=NC(c2ccccc2)C(c2ccccc2)=NN1)Sc1ccccc1N` (stereo unspecified), for which the EC50 is above 81.3 µM and the IC50 turned out to be 1.45 µM.
Taken in the same sequence, the figures for `COC(=O)c1cc(=O)c2scc(C)[n+]2[nH]1` were above 955 µM and above 955 µM.
As to `CCCC(CC)c1cc(O)c(O)cc1C(CC)CCC` (stereo unspecified), the EC50 was above 200 µM and the IC50 came out at 105 µM.
Consider `OC1(c2cccc(Cl)c2)C2=NCCCN2c2ccccc21` (stereo unspecified), for which the outcome was inactive.
With `O=c1[nH]c(Nc2cccc(CC(F)(F)F)c2)nc2nc[nH]c12`, the EC50 is above 200 µM and the IC50 was determined as 110 µM.
As to `NNC(=Nc1ccccc1)SCc1ccccc1`, the outcome was inactive.
For the compound `CC12CC3CC(C)(C1)CC(N=[N+]=[N-])(C3)C2`, the EC50 is above 91.2 µM and the IC50 was above 91.2 µM.
On to `O=S(=O)(Cc1ccccc1)SCc1ccccc1`, for which the EC50 was above 79.4 µM and the IC50 worked out at 6.31 µM.
For `O=C(Nc1ccccc1)c1c(O)[nH]c(=S)[nH]c1=O`, in that order: 11.2 µM and 21.4 µM.
Taken in the same sequence, the figures for `COc1cc(C2C(C(=O)Nc3cc(F)c(F)cc3F)=C(C)NC(C)=C2C(=O)Nc2cc(F)c(F)cc2F)ccc1O` were above 32.4 µM and above 32.4 µM.
As to `COCCN1C2=CCCCC2=Nc2c(N)nc(N)nc21`, the outcome was inactive.
As for `CCOc1ccccc1N=Nc1ccc2oc(=O)c(C(=O)Nc3cccc(C)c3)cc2c1`, the EC50 was above 43.7 µM and the IC50 was above 43.7 µM.
As to `CCCCCCCCCCCCCCCCNC(=O)/C(=C\c1ccccc1O)NC(=O)c1ccccc1`, the EC50 was above 200 µM and the IC50 is above 200 µM.
For the compound `Nc1nc(Cl)cc(Oc2ccc(Cl)cc2)n1`, the EC50 was above 200 µM and the IC50 was above 200 µM.
With `N#CC1(C#N)C2(c3ccccc3)OC(c3ccccc3)(c3cc4ccccc4cc32)C1(C#N)C#N`, the result was inactive.
Turning to `CCCCCCCCCCCCCCCC(=O)Nc1ccn(C2CCC(COP(=O)(O)OCC3OC(n4ccc(NC(=O)CCCCCCCCCCCCCCC)nc4=O)CC3OP(=O)(O)OCC3OC(n4ccc(NC(=O)CCCCCCCCCCCCCCC)nc4=O)CS3)O2)c(=O)n1` (stereo unspecified), the EC50 is 1.1 µM and the IC50 stood at 83.2 µM.
For `COc1cc2c(cc1O)C1C(O2)c2c(OC)cc3c(c2OC1(C)C)CCC(C)(C)O3` (stereo unspecified), in that order: above 200 µM and 32.4 µM.
For `CN=C(N)NC`, in that order: above 1480 µM and above 1480 µM.
For `O=C1/C(=C/c2ccccc2)CN(C(=O)Oc2ccccc2)C/C1=C\c1ccccc1`, the outcome was inactive.
`O=C1N(Cl)C2C(N1Cl)N(Cl)C(=O)N2Cl` (stereo unspecified): the EC50 is above 200 µM and the IC50 is above 200 µM.
Consider `O=C1/C(=C/c2ccc(OC(=O)c3ccccc3)cc2)CCC/C1=C\c1ccc(OC(=O)c2ccccc2)cc1`, for which the EC50 was above 100 µM and the IC50 is above 100 µM.
Take `COc1cc(/C=c2\sc3n(c2=O)C(c2ccc(Cl)cc2)C2=C(CCCC2C)N=3)cc(OC)c1OC` (stereo unspecified): the EC50 was above 200 µM and the IC50 was above 200 µM.
`CC(/C=N/NC1=NCCCN1)=N\NC1=NCCCN1`: the EC50 was above 200 µM and the IC50 was above 200 µM.
`ClC/C=C\C[N+]12CN3CN(CN(C3)C1)C2`: the EC50 was above 200 µM and the IC50 came to 24 µM.
Turning to `C1CNCCSCCCSCCNC1`, the EC50 was above 200 µM and the IC50 was above 200 µM.
Turning to `Cc1ccc(S(=O)(=O)OCCOCCOCCOCCOCCOS(=O)(=O)c2ccc(C)cc2)cc1`, the result was inactive.
Turning to `Cc1c2c(c(C)n1-c1ccccc1)C(=O)N(CCCCN1CCN(c3ccccc3)CC1)C2=O`, the EC50 was above 200 µM and the IC50 stood at 8.91 µM.
